Earlier results as cited in US20170333338A1, “SUSTAINED AND REVERSIBLE ORAL DRUG DELIVERY SYSTEMS” (The Children's Medical Center Corporation, priority 2014, published 2017).

NCCC(O)(P(=O)(O)O)P(=O)(O)O [Pamidronate]
highest pKa of the phosphate groups: 10.18
